The target in series [1] is L-type calcium channel Cav1.2 (CACNA1C) (Homo sapiens, UniProt Q13936). In words: Selectivity interaction (Panel of kinases, GPCRs, ion channels and transporters (enzymatic assay)) EUB0000266bCl CACNA1C.
Series [2] concerns the target T1, Serine/threonine-protein kinase D1 (Homo sapiens) (UniProt Q15139).
T1 sequence (whole entry): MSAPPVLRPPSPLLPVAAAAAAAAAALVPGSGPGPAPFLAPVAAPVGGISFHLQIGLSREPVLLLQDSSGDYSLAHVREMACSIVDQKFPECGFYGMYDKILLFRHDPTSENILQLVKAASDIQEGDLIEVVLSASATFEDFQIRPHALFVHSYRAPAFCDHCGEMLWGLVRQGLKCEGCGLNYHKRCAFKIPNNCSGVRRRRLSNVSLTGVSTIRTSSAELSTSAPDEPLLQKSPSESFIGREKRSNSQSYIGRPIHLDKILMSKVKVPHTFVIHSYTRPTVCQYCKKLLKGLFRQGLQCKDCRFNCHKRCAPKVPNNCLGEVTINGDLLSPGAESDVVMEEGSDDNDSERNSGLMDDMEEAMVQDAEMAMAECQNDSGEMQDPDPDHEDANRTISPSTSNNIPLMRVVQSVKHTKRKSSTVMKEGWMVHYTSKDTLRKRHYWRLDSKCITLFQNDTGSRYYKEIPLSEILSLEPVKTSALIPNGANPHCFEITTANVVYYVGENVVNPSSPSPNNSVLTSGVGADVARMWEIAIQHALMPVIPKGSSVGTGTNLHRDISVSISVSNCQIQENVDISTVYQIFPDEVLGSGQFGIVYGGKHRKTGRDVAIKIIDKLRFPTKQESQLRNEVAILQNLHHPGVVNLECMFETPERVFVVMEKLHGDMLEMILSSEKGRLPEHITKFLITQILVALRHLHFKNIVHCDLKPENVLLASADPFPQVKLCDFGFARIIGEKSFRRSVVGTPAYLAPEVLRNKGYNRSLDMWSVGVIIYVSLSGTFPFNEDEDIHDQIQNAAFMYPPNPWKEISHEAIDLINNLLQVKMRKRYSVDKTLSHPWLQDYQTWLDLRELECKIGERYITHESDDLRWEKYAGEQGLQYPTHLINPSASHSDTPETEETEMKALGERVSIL
The series can be described thus: Selectivity interaction (ProQinase) EUB0000171b PRKD1.

Series [3] concerns the target Casein kinase I isoform alpha (Homo sapiens, UniProt P48729). As to conditions: at 10 µM.
The target in series [4] is Phosphatidylinositol 4-kinase beta (Homo sapiens, UniProt Q9UBF8). In words: Selectivity interaction (KinomeScan (DiscoverX)) EUB0001079a PI4KB. As to conditions: at 1 µM.
The target of series [5] is CDK4/Cyclin D3 (Homo sapiens) (UniProt P11802+P30281). The series can be described thus: (§1) Selectivity interaction (KinomeScan (DiscoverX)) EUB0000092b CDK4. It counts as protein-complex assay. The conditions noted are these: at 10 µM.
The target of series [6] is Cyclin-dependent kinase 4/cyclin D1 (Homo sapiens) (UniProt P11802+P24385). The description is as §1. Type of series: protein-complex assay. The conditions noted are these: at 10 µM.
Series [7] deals with T2, Serine/threonine-protein kinase Nek3 (Homo sapiens) (UniProt P51956).
T2 sequence (whole entry): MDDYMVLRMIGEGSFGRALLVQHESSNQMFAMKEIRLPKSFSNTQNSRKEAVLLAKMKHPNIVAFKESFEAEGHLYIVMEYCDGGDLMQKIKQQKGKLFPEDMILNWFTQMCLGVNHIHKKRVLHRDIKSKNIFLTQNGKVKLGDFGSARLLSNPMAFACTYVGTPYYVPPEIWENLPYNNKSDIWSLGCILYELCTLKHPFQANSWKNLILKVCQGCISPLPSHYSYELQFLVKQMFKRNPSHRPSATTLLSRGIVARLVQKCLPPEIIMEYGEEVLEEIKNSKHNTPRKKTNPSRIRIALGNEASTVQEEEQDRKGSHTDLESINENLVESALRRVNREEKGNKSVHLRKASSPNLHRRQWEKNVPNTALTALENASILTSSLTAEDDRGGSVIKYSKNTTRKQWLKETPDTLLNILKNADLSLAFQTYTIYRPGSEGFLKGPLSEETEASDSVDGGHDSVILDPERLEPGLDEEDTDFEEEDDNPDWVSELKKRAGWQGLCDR
In words: Selectivity interaction (KinomeScan (DiscoverX)) EUB0000092b NEK3. The conditions noted are these: at 10 µM.

Series [8] has as its target G protein-coupled receptor kinase 4 (Homo sapiens) (UniProt P32298). In words: Selectivity interaction (KinomeScan (DiscoverX)) EUB0001049a GRK4. As to conditions: at 1 µM.
For series [9], the system named is Platelet-derived growth factor receptor alpha (Homo sapiens), P16234 [D842V]. In words: (§2) Selectivity interaction (Kinase panel (Z-LYTE Assay)) EUB0001632a PDGFRA. The conditions noted are these: at 10 µM.
The test system of series [10] is Platelet-derived growth factor receptor alpha (Homo sapiens), P16234 [T674I]. Described as §2. As to conditions: at 10 µM.
Series [11] has as its system Platelet-derived growth factor receptor alpha (Homo sapiens), P16234 [V561D]. The series is described as §2. As to conditions: at 10 µM.
The target of series [12] is Platelet-derived growth factor receptor alpha (Homo sapiens, UniProt P16234). The description is as §2. The conditions noted are these: at 10 µM.
Sequence of Platelet-derived growth factor receptor alpha (P16234 whole entry): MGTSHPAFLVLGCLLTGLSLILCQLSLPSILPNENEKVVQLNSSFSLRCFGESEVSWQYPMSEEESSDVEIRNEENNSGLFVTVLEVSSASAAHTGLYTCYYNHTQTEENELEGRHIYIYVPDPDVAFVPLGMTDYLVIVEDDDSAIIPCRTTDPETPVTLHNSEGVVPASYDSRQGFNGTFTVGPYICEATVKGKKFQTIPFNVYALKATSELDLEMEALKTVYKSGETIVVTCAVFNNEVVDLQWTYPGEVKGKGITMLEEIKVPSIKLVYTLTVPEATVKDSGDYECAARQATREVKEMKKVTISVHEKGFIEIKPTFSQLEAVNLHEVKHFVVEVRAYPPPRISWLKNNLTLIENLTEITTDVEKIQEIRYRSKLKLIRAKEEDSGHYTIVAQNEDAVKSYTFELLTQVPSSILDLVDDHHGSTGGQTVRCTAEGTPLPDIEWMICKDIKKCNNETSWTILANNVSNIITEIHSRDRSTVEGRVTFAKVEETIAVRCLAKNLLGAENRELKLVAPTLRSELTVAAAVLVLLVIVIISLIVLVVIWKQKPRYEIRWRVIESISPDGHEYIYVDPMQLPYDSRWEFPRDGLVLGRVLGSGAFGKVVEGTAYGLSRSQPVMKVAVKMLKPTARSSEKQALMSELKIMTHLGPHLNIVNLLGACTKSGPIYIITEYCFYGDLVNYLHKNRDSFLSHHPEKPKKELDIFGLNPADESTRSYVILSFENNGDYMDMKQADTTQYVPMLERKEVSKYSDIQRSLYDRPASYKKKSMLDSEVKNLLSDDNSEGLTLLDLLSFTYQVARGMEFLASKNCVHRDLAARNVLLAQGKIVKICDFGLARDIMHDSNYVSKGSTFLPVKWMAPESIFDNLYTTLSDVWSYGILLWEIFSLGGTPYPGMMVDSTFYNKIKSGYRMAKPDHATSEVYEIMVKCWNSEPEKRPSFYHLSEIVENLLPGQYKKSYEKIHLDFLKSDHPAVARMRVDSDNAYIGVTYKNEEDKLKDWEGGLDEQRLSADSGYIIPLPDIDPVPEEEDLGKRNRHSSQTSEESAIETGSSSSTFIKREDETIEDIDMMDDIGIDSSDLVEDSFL
The target of series [13] is Serine/threonine-protein kinase tousled-like 2 (Homo sapiens) (UniProt Q86UE8). In words: Selectivity interaction (LanthaScreen Eu Kinase Binding Assay) EUB0001632a TLK2. The conditions noted are these: at 10 µM.
Sequence of Serine/threonine-protein kinase tousled-like 2 (Homo sapiens) (Q86UE8 whole entry, looked up): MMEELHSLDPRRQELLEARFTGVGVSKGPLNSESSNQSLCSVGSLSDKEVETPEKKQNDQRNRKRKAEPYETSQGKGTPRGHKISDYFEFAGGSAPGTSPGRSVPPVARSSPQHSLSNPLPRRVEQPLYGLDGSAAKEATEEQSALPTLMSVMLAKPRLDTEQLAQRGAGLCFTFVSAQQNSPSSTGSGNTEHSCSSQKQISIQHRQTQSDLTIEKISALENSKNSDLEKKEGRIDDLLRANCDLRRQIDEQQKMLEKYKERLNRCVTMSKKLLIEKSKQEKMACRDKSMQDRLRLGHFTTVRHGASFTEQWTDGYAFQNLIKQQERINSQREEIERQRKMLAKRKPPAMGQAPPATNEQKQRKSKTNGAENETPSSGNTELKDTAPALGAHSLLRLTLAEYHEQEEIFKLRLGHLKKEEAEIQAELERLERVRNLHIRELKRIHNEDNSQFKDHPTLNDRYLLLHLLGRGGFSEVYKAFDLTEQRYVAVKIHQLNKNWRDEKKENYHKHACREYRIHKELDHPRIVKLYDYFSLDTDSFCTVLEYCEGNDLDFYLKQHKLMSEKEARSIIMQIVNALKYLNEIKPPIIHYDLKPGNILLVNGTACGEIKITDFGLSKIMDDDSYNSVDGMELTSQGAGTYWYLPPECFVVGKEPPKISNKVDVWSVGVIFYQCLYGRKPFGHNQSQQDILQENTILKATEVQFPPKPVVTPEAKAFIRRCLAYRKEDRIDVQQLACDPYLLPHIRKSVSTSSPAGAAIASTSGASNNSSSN
The target of series [14] is T3, Dual specificity mitogen-activated protein kinase kinase 4 (Homo sapiens) (UniProt P45985).
T3 sequence (whole entry): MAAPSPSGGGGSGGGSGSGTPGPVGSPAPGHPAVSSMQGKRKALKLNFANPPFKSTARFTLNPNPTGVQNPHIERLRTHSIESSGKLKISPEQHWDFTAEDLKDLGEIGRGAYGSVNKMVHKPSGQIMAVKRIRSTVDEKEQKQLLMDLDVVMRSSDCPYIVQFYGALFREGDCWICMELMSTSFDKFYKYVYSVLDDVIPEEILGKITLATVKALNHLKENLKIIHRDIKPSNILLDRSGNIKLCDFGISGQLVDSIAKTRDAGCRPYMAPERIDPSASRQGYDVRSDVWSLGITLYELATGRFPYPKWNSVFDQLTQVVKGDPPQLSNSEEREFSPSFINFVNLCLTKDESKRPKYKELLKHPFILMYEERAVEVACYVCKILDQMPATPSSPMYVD
In words: Selectivity interaction (KinomeScan (DiscoverX)) EUB0000607a MAP2K4. The conditions noted are these: at 10 µM.

Series [15] deals with 5'-AMP-activated protein kinase catalytic subunit alpha-1 (Homo sapiens, UniProt Q13131). In words: Selectivity interaction (ActivX KiNativ screen (kinase selectivity in THP-1 cell lysates)) EUB0000639a PRKAA1. Type of series: subcellular. As to conditions: lysate, at 0.04 µM.
Sequence of 5'-AMP-activated protein kinase catalytic subunit alpha-1 (Q13131 whole entry, looked up): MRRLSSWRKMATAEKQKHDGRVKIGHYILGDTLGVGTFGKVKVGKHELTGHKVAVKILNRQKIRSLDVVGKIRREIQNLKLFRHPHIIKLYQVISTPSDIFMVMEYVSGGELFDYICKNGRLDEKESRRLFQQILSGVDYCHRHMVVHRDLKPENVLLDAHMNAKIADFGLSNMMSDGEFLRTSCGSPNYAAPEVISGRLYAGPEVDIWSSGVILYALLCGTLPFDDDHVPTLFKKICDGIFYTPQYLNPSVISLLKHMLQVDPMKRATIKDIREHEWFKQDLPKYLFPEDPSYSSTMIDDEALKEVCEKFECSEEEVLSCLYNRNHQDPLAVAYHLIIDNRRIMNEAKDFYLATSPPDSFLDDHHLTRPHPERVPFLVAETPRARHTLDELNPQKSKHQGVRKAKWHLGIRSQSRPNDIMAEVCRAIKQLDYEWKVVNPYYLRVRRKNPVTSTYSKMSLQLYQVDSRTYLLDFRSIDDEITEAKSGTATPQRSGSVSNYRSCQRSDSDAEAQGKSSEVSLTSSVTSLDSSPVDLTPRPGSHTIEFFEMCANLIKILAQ
In series [16] the target is Serine/threonine-protein kinase SIK1 (Homo sapiens) (UniProt P57059). The series can be described thus: Selectivity interaction (KinomeScan (DiscoverX)) EUB0000229b SIK1. As to conditions: at 10 µM.
Sequence of Serine/threonine-protein kinase SIK1 (Homo sapiens) (P57059 whole entry): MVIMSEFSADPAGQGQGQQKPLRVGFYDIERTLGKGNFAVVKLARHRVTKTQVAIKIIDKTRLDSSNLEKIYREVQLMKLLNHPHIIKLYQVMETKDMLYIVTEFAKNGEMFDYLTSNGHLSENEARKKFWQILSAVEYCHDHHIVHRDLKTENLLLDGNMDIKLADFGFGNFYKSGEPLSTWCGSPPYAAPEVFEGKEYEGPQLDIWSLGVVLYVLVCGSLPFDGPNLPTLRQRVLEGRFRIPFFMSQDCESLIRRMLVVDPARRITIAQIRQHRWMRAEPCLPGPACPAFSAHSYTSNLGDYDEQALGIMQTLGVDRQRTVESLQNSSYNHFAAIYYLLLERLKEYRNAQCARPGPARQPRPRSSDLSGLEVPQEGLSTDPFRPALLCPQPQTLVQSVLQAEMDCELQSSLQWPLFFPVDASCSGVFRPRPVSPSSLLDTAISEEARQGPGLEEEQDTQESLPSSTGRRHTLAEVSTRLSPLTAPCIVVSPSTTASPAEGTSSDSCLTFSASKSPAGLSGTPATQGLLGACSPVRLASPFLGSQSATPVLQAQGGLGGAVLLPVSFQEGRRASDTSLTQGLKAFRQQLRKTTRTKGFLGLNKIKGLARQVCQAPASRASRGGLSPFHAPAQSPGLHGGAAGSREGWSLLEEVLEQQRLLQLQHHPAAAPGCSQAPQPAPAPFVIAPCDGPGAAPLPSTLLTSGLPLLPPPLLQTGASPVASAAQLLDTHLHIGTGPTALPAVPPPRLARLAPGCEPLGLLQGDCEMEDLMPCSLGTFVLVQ
Series [17] has as its target Mitogen-activated protein kinase kinase kinase 20 (Homo sapiens) (UniProt Q9NYL2). The series can be described thus: Selectivity interaction (KinomeScan (DiscoverX)) EUB0001619a MAP3K20. The conditions noted are these: at 1 µM.
Series [18] concerns the target Dual specificity mitogen-activated protein kinase kinase 1 (Homo sapiens, UniProt Q02750). In words: Selectivity interaction (Enzymatic assay) EUB0001199aCl MAP2K1.

We go through 12 molecules from ChEMBL document CHEMBL5465560, “Selectivity Literature for EUbOPEN Chemogenomic Library” (2024).

Sequence of Platelet-derived growth factor receptor alpha (Homo sapiens), P16234 [V561D] (P16234 whole entry V561D): as the sequence (P16234 whole entry) above, with V561D counted along it
Sequence of Mitogen-activated protein kinase kinase kinase 20 (Homo sapiens) (Q9NYL2 2-800 limits assumed): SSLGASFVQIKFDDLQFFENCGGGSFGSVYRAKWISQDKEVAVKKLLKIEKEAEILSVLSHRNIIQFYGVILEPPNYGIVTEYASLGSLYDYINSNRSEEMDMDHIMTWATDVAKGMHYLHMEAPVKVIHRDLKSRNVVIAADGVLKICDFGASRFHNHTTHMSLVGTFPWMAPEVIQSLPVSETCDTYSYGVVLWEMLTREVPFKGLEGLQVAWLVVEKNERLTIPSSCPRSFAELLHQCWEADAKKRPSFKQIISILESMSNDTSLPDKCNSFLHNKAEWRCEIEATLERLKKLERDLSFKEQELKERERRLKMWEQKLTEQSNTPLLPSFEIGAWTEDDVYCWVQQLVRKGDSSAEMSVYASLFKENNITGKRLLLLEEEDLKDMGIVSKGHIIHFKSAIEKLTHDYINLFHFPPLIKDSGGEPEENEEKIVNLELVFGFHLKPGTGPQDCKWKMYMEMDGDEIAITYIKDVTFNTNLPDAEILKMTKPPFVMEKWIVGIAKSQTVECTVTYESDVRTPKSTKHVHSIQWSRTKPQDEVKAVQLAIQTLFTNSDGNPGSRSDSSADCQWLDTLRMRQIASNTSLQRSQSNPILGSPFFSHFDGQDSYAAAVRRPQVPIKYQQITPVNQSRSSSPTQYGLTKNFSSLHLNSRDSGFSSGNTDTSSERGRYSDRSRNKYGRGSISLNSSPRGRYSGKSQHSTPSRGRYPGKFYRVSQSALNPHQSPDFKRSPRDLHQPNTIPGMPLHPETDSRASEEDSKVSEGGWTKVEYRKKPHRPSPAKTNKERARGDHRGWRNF

For the molecule `CCn1c(-c2nc3cc(C(=O)N4CCCC(N)C4)ccc3n2C)cc2ccccc21` (centres undefined), the XC50 in series [1] is greater than 15.8 µM. As for `C=CC(=O)Nc1cccc(C(=O)Nc2ccc(Nc3cc(-c4[nH]c(SC)nc4C)ccn3)cc2)c1`, the % of control amounted to 68% in series [2] (at 1 µM) and 31% in series [2] (at 5 µM).

In the case of `Cc1cc([C@@H](C)Nc2ccccc2C(=O)O)c2nc(N3CCOCC3)cc(=O)n2c1` [AZD-6482], the % of control in series [3] is 63%. In turn, `Nc1cnc(N2CCc3cc(S(=O)(=O)Nc4c(F)cc(Cl)cc4F)cc(N4CCCC4=O)c32)nc1` [TP-020n] displayed a % of control in series [4] of 93%. Consider `CCC(=O)N1CCN(c2ccc(-n3c(=O)ccc4cnc5ccc(-c6cnc7ccccc7c6)cc5c43)cc2C(F)(F)F)CC1`, for which the % of control in [5] was 87%; in series [6], 100%; in series [7], 100%. On to `COc1cc(Nc2nc(C)cc(-c3cnn4nc(OC)ccc34)n2)cc(C(F)(F)F)c1`, for which, in [8], the % of control worked out at 85%. For `Cn1cc(-n2cnc3c(NCc4nc5cc(Cl)c(Cl)cc5[nH]4)nc(N4CCOCC4)nc32)cn1`, the % of control was 7.9% in [9], 4.9% in series [10], 19.4% in [11] and 8.82% in [12]. Further, the % of inhibition in [13] is -11.9%. In the case of `CNC(=O)Nc1ccc(-c2nc(N3CC4CCC(C3)O4)c3cnn(C4CCC5(CC4)OCCO5)c3n2)cc1`, in [14], the % of control came to 90%. As for `CC[C@@H]1[C@H](F)C(=O)N[C@@H]1COc1nccc2cc(C(N)=O)c(OC)cc12` [ZIMLOVISERTIB], the % of inhibition in series [15] was 4.2%.

Molecule `COc1cc(N(C)c2ccnc3ccc(C(F)(F)F)cc23)cc(OC)c1OC` registered a % binding in series [16] of 96%.

In series [17], `N#Cc1cccc(-c2c[nH]c3ncnc(N4CCOCC4)c23)c1` yielded a % of control of 86%.

Turning to `CN1Cc2nccc(-c3cn(C)nc3-c3ccc(F)cc3)c2C1=O`, the IC50 in series [18] was determined as 10.2 µM.
